Test results as given in patent US20240003872A1, “METHODS FOR ASSAYING AND MEASURING THE EFFICACY OF ANTI-NAUSEA COMPOUNDS” (priority 2020, published 2024).
Entries after “also recorded” stand apart in the source; their conditions may differ.

Experiments:
[1] = tested on: human intestinal smooth muscle cells (HISMCs); assay: HISMC/collagen matrix cell contraction assay; format: cell-based
Experimental: This assay was used to study the ability of […] to reorganize and contract in a collagen matrix. All procedures were done accordingly to protocols described by Dr. Alexander (5-HT3 dependent smooth muscle contraction assay, revised Aug. 30, 2012). The assay consisted in the preparation of collagen solution and in the polymerization and release of […]/collagen matrices. For 12 mL of collagen/[…], 15.0 mg of rat tail collagen was dissolved in 3.2 mL of cold 0.012M HCL. The solution was placed for 30 min in a rocker machine for gently agitation to avoid introducing bubbles. Then, 0.8 mL of cold PBS was added to the tube, mixed well, and kept on ice. The pH of the collagen solution was quickly titrated with 0.5 M NaOH to 7.45, and monitored by pH strips. The final collagen concentration was 1.25 mg/mL. The neutralized cold collagen solution was mixed with 12 mL of cold SMCM/1.5% dialyzed FBS containing […] at desire cell density (1×10^5 cells/mL). 0.5 mL of collagen/[…] mixture was added per well in 24-well plates and was incubated for 1 h at 37° C., 5% CO2. After collagen polymerization, 0.5 mL of culture medium with or without two-time concentration of drug treatments was added atop each collagen gel lattice. The polymerized collagen matrix containing […] was released from the edges of the well with a sterilized heat-blunted Pasteur pipette tip to allow them to float in culture medium, and contraction occurred with or without agonist addition in the absence of external mechanical load. The collagen gel size change (contraction index) was measured by morphometric analysis at various times (0, 24, 48, and 72 h). The culture plates were analyzed in triplicate and monitored at 24 h intervals. At the end of each time point, the plates were scanned via an Epson flatbed scanner.

[2] = tested on: college students with self-rated high susceptibility to motion sickness; settings: 940 mg ginger root or 100 mg Dramamine 25-30 minutes prior to test; P < .001; cited from earlier work
[3] = tested on: women after laparascopic gynaecological surgery; settings: ginger, 1.25 mg droperidol, vs placebo; cited from earlier work
[4] = tested on: Women undergoing gynecological surgery; settings: 1.0 g ginger or 10 mg metochlopramide orally prior to surgery; P < .05; cited from earlier work
[5] = tested on: women after laparascopic gynaecological surgery; settings: post-operative; given one hour prior to anaesthesia; placebo 41%; cited from earlier work

Cl.NCCc1c[nH]c2ccc(O)cc12 [5-HT, 5-Hydroxytryptamine hydrochloride]
contraction of HISMC gels induced by agonist ([1]; 5-HT at 10^−7M, 10^−8M and 10^−9M): induced dose and time dependent contraction

C[C@@H](O[C@H]1OCCN(Cc2n[nH]c(=O)[nH]2)[C@H]1c1ccc(F)cc1)c1cc(C(F)(F)F)cc(C(F)(F)F)c1 [Aprepitant]
effect on HISMC/collagen gel contraction ([1]; different concentrations, with or without 5-HT3): attenuated collagen gel contraction only at high concentrations, 10^−4 M and not significantly

Cc1nccn1CC1CCc2c(c3ccccc3n2C)C1=O (centres unmarked) [Ondansetron]
effect on 5-HT induced HISMC/collagen matrix contraction ([1]; with 5-HT (10^−7M), different concentrations, 0-72 h): reduced; also recorded: inhibited HISMCs contractions in a concentration- and time-dependent manner
effect on HISMC/collagen matrix contraction without 5-HT ([1]; without 5-HT, different concentrations, 0-72 h): inhibited HISMCs contractions in a concentration- and time-dependent manner

CN(C)CCOC(c1ccccc1)c1ccccc1 [diphenhydramine]
reducing vection induced motion sickness versus placebo (time in induced motion) [2]: more effective than dried chickweed herb placebo

O=C(CCCN1CC=C(n2c(=O)[nH]c3ccccc32)CC1)c1ccc(F)cc1 [droperidol]
decrease in nausea or vomiting post-surgery [3]: no differences

CCN(CC)CCNC(=O)c1cc(Cl)c(N)cc1OC [metochlopramide]
effectiveness versus placebo for post-operative nausea and vomiting control [4]: significantly more effective than placebo
patients nauseated [5]: placebo, 27%
